Test: xn = mol fraction of the nth substance listed

CCCC[n+]1ccn(C)c1.COP(=O)([O-])OC + CCO
viscosity [mPa·s], 101 kPa
Settings	293.15 K	298.15 K	308.15 K	313.15 K	318.15 K	323.15 K	328.15 K	333.15 K
x2 = 0.201	–	–	155.7	–	–	–	–	–
x2 = 0.399	150.9	114.4	–	55.65	45.2	37.08	30.89	25.94
x2 = 0.8	–	–	5.933	5.272	–	4.227	3.811	–

CCCC[n+]1ccn(C)c1.[Cl-] + CCO
101 kPa
Settings	electrical conductivity [S/m]	viscosity [mPa·s]
293.15 K, x2 = 0.9501	–	1.78
298.15 K, x2 = 0.7003	1.07	10.1
298.15 K, x2 = 0.8002	1.45	4.59
303.15 K, x2 = 0.4991	–	49.8
303.15 K, x2 = 0.6011	–	20.7
303.15 K, x2 = 0.9501	–	1.47

CCOP(=O)([O-])OCC.CC[N+]1(C)CCOCC1 + CCO
viscosity [mPa·s], 100 kPa
Settings	293.15 K	298.15 K	303.15 K	308.15 K	313.15 K	318.15 K	323.15 K	328.15 K	333.15 K	338.15 K
x1 = 0.0996	4.62	4.1	3.75	3.43	3.13	2.91	2.76	2.58	2.4	2.24
x1 = 0.2018	12.84	11.11	9.79	8.75	7.93	7.21	6.69	6.18	5.76	5.54
x1 = 0.3003	36.7	29.6	24.7	20.8	18.1	15.82	14.33	13.01	11.79	10.78
x1 = 0.4018	97.7	75.1	59	47.6	38.2	31.8	27.3	23.5	21.1	18.7
x1 = 0.4998	257	183	136.7	102.9	78.9	61.3	49.2	40.1	33.3	29
x1 = 0.6009	625	419	291	209	155	116.8	90	68.9	54.9	44.7
x1 = 0.7005	1447	938	631	424	298	213	158	120.4	91.7	72
x1 = 0.7996	3386	2221	1448	895	582	409	282	205	155	114.1
x1 = 0.901	6136	3670	2214	1372	909	604	418	297	215	160
x1 = 1	12100	6680	3786	2325	1466	942	634	443	312	226

Source: the CheMixHub ionic liquid set
